Test results published in patent publication US9938316B2, “Selective inhibitors of α2 isoform of Na,K-ATPase and use thereof for reduction of intra-ocular pressure and as cardiotonic agents” (priority 2013, dated 2018).

Columns and labels:
[1] = target: Na,K-ATPase α2β1 isoform complex (Homo sapiens, UniProt P50993); assay: biochemical; format: biochemical; parameters: made in house; host or cells: Pichia pastoris SMD1165; details: Ki, nM ± SEM α2β1, Table 6
Method: (§1) Methods for transformation, culture of P. pastoris clones, protein expression of Na,K-ATPase human isoforms (α1β1, α2β1, α3β1), membrane preparation, solubilization of membranes in DDM, and purification on BD-Talon beads have been described in detail (6-9, 11, 25). In initial experiments the three purified isoform complexes (0.3-0.5 mg/ml) were eluted from the BD-Talon beads in a solution containing Imidazole 170 mM, NaCl 100 mM; Tricine.HCl 20 mM pH 7.4; C12E8, 0.1 mg/ml; SOPS 0.07 mg/ml cholesterol 0.01 mg/ml, glycerol 25%. In later experiments the isoforms complexes were reconstituted with purified FXYD1 on the BD-Talon beads together as described in detail in (10, 11) prior to elution of α1β1FXYD1, α2β1FXYD1 and α3β1FXYD1 complexes. The proteins were stored at −80° C. Protein concentration was determined with BCA (B9643 Sigma).
(§2) Inhibition of Na,K-ATPase activity of the detergent-soluble α1β1, α2β1, and α3β1 complexes by CG's was determined as described (6) using either the αβ or αβFXYD1 complexes. […] The K0.5K was estimated by varying K concentration in a medium containing a fixed total K+choline chloride of 60 mM, and constant NaCl of 140 mM. Curves were fitted to the Hill function v=Vmax*[S]^n/([S]^n+K^n), where S is the K concentration, n is the Hill coefficient and K^n is K0.5K. For comparison of different curves the ratio v/Vmax for each curve was calculated and replotted. In experiments to assess inhibition of Na,K-ATPase activity by cardiac glycosides of the present invention, the percent inhibition VCG/V0 was calculated and Ki values were obtained by fitting the data to the function VCG/V0=Ki/([CG]+Ki)+ c. Inhibition was estimated in 3-8 separate experiments and average Ki values ±SEM were calculated. Significance of differences between Kiα1 and Kiα2 was calculated by the unpaired Student's t-test (p values). […] P values <0.05 were considered significant.

[2] = target: Na,K-ATPase α1β1 isoform complex (Homo sapiens, UniProt P05023); assay: biochemical; parameters: made in house; host or cells: Pichia pastoris SMD1165; details: Ki, nM ± SEM α1β1, Table 6
Method: as §1, §2

With CC1CN(C)CCC(OC2C(O)CC(OC3C(O)CC(OC4CCC5(C)C(CCC6C5CC(O)C5(C)C(C7=CC(=O)OC7)CCC65O)C4)OC3C)OC2C)O1 (centres unmarked) [DMe] the Ki [1] was 15.3 ± 1.2 nM and the Ki [2] was 103 ± 5.6 nM.
